Activity calls are given as the source filed them. The calls are words filed in the database; no cut-off is given here.
Columns and labels:
[1] = target: T1, Protein cereblon/Bromodomain-containing protein 4 (Homo sapiens) (UniProt O60885+Q96SW2); assay: Protac activity at CRBN/BRD4 in human MM1.S cells assessed as downregulation of MYC protein expression at […] incubated for 3 hrs by Western blot analysis; type: cell-based
[2] = Inhibition of TGF-beta induced activation of human MRC5 cells assessed as residual BRD4 protein level at 0.1 uM by Western blot analysis (reference value: 96%); type: functional
[3] = target: T1, Protein cereblon/Bromodomain-containing protein 4 (Homo sapiens); assay: Protac activity at CRBN/BRD4 in human MM1.S cells assessed as induction of BRD4 protein degradation by measuring residual activity at 100 nM measured after 6 hrs by Western blot analysis (reference value: 100%); type: cell-based
MM1.S = assay: Antiproliferative activity against human MM1.S cells assessed as inhibition of cell growth incubated for 72 hrs MTS assay; type: functional, cell-based
[4] = target: T1, Protein cereblon/Bromodomain-containing protein 4 (Homo sapiens); assay: Protac activity at CRBN/BRD4 in human MM1.S cells assessed as induction of BRD4 protein degradation by measuring residual activity at 300 nM measured immediately by Western blot analysis (reference value: 317%); type: cell-based
[5] = target: T1, Protein cereblon/Bromodomain-containing protein 4 (Homo sapiens); assay: Protac activity at CRBN/BRD4 in human MV4-11 cells assessed as downregulation of MYC protein expression at 30 uM incubated for 3 hrs by Western blot analysis; type: cell-based
[6] = target: T1, Protein cereblon/Bromodomain-containing protein 4 (Homo sapiens); assay: Protac activity at CRBN/BRD4 in human MV4-11 cells assessed as induction of BRD4 protein degradation by measuring residual activity at 30 nM measured after 9 hrs by Western blot analysis (reference value: 100%); type: cell-based
[7] = target: T1, Protein cereblon/Bromodomain-containing protein 4 (Homo sapiens); assay: Protac activity at CRBN/BRD4 in human MM1.S cells assessed as induction of BRD4 protein degradation by measuring residual activity at 300 nM measured after 9 hrs by Western blot analysis (reference value: 317%); type: cell-based
[8] = target: T1, Protein cereblon/Bromodomain-containing protein 4 (Homo sapiens); assay: Protac activity at CRBN/BRD4 in human MV4-11 cells assessed as induction of BRD4 protein degradation by measuring residual activity at 0.009 uM incubated for 3 hrs by Western blot analysis relative to control; type: cell-based
MV4-11 = assay: Antiproliferative activity against human […] cells assessed as inhibition of cell growth incubated for 72 hrs MTS assay; type: functional, cell-based; conditions: MV4-11, 72 h
[9] = target: T1, Protein cereblon/Bromodomain-containing protein 4 (Homo sapiens); assay: Protac activity at CRBN/BRD4 in human MM1.S cells assessed as induction of BRD4 protein degradation by measuring residual activity at 0.09 uM incubated for 3 hrs by Western blot analysis relative to control; type: cell-based
[10] = target: T1, Protein cereblon/Bromodomain-containing protein 4 (Homo sapiens); assay: Protac activity at CRBN/BRD4 in human MM1.S cells assessed as induction of BRD4 protein degradation by measuring residual activity at 300 nM preincubated with lenalidomide for 2 hrs followed by compound addition and measured after 6 hrs by Western blot analysis (reference value: 100%); type: cell-based
[11] = target: T1, Protein cereblon/Bromodomain-containing protein 4 (Homo sapiens); assay: Protac activity at CRBN/BRD4 in human MM1.S cells assessed as induction of BRD4 protein degradation by measuring residual activity at 300 nM measured after 6 hrs by Western blot analysis (reference value: 317%); type: cell-based
MRC5 [12] = assay: Inhibition of TGF-beta induced activation of human MRC5 cells assessed as downregulation of COL-1 protein expression at 0.1 to 10 uM by Western blot analysis; type: functional, cell-based; conditions: dose 0.1-10 µM
[13] = Inhibition of TGF-beta induced activation of human MRC5 cells assessed as residual BRD4 protein level at 5 uM by Western blot analysis (reference value: 96%); type: functional
[14] = target: T1, Protein cereblon/Bromodomain-containing protein 4 (Homo sapiens); assay: Protac activity at CRBN/BRD4 in human MV4-11 cells assessed as induction of BRD4 protein degradation by measuring residual activity at 0.003 uM incubated for 3 hrs by Western blot analysis relative to control; type: cell-based
[15] = target: T1, Protein cereblon/Bromodomain-containing protein 4 (Homo sapiens); assay: Protac activity at CRBN/BRD4 in human MV4-11 cells assessed as induction of BRD4 protein degradation by measuring residual activity at 3 nM measured after 6 hrs by Western blot analysis (reference value: 100%); type: cell-based
[16] = target: T1, Protein cereblon/Bromodomain-containing protein 4 (Homo sapiens); assay: Protac activity at CRBN/BRD4 in human MM1.S cells assessed as induction of BRD4 protein degradation by measuring residual activity at 1000 nM measured after 6 hrs by Western blot analysis (reference value: 100%); type: cell-based
[17] = target: T1, Protein cereblon/Bromodomain-containing protein 4 (Homo sapiens); assay: Protac activity at CRBN/BRD4 in human MV4-11 cells assessed as induction of BRD4 protein degradation by measuring residual activity at 30 nM measured after 1 hr by Western blot analysis (reference value: 100%); type: cell-based
[18] = Inhibition of TGF-beta induced activation of human MRC5 cells assessed as residual BRD4 protein level at 10 uM by Western blot analysis (reference value: 100%); type: functional
[19] = target: T1, Protein cereblon/Bromodomain-containing protein 4 (Homo sapiens); assay: Protac activity at CRBN/BRD4 in human MM1.S cells assessed as induction of BRD4 protein degradation by measuring residual activity at 10 nM measured after 6 hrs by Western blot analysis (reference value: 100%); type: cell-based
[20] = target: T1, Protein cereblon/Bromodomain-containing protein 4 (Homo sapiens); assay: (§1) Protac activity at CRBN/BRD4 in human MV4-11 cells assessed as induction of BRD4 protein degradation by measuring residual activity at 30 nM preincubated with lenalidomide for 2 hrs followed by compound addition and measured after 6 hrs by Western blot analysis (reference value: 100%); type: cell-based
[21] = target: T1, Protein cereblon/Bromodomain-containing protein 4 (Homo sapiens); assay: as §1, with “tert-butyl (S)-2-(4-(4-chlorophenyl)-2,3,9-trimethyl-6H-thieno[3,2-f][1,2,4]triazolo[4,3-a][1,4]diazepin-6-yl)acetate” for “lenalidomide”; type: cell-based
[22] = target: T1, Protein cereblon/Bromodomain-containing protein 4 (Homo sapiens); assay: Protac activity at CRBN/BRD4 in human MM1.S cells assessed as induction of BRD4 protein degradation by measuring residual activity at 0.03 uM incubated for 3 hrs by Western blot analysis relative to control; type: cell-based
[23] = target: T1, Protein cereblon/Bromodomain-containing protein 4 (Homo sapiens); assay: Protac activity at CRBN/BRD4 in human MV4-11 cells assessed as induction of BRD4 protein degradation by measuring residual activity at 0.001 uM incubated for 3 hrs by Western blot analysis relative to control; type: cell-based
MRC5 [24] = assay: Inhibition of TGF-beta induced activation of human MRC5 cells assessed as downregulation of alpha-SMA protein expression at 0.1 to 10 uM by Western blot analysis; type: functional, cell-based; conditions: dose 0.1-10 µM
[25] = target: T1, Protein cereblon/Bromodomain-containing protein 4 (Homo sapiens); assay: Protac activity at CRBN/BRD4 in human MM1.S cells assessed as induction of BRD4 protein degradation by measuring residual activity at 30 nM measured after 6 hrs by Western blot analysis (reference value: 100%); type: cell-based
[26] = Inhibition of TGF-beta induced activation of human MRC5 cells assessed as residual BRD4 protein level at 0.5 uM by Western blot analysis (reference value: 96%); type: functional
[27] = target: T1, Protein cereblon/Bromodomain-containing protein 4 (Homo sapiens); assay: Protac activity at CRBN/BRD4 in human MV4-11 cells assessed as induction of BRD4 protein degradation by measuring residual activity at 30 nM measured after 3 hrs by Western blot analysis (reference value: 100%); type: cell-based
[28] = target: T1, Protein cereblon/Bromodomain-containing protein 4 (Homo sapiens); assay: Protac activity at CRBN/BRD4 in human MV4-11 cells assessed as induction of BRD4 protein degradation by measuring residual activity at 1 nM measured after 6 hrs by Western blot analysis (reference value: 100%); type: cell-based
[29] = target: T1, Protein cereblon/Bromodomain-containing protein 4 (Homo sapiens); assay: Protac activity at CRBN/BRD4 in human MM1.S cells assessed as induction of BRD4 protein degradation by measuring residual activity at 300 nM measured after 3 hrs by Western blot analysis (reference value: 317%); type: cell-based

T1 sequence (Q96SW2 whole entry, looked up, other chains not shown): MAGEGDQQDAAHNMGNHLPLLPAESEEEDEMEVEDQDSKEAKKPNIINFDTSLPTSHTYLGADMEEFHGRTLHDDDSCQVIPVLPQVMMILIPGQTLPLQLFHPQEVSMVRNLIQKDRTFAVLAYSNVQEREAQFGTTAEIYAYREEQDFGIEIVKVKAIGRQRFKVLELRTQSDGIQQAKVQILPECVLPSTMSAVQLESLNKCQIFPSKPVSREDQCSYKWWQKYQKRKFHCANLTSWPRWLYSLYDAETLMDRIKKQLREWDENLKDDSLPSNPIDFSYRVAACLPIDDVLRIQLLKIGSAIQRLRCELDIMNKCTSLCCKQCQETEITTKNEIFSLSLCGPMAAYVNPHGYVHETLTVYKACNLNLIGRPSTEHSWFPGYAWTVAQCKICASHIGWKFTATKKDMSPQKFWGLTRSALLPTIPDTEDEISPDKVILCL

## Cc1sc2c(c1C)C(c1ccc(Cl)cc1)=N[C@@H](CC(=O)NCCCCC(=O)NCCNc1cccc3c1C(=O)N(C1CCC(=O)NC1=O)C3=O)c1nnc(C)n1-2 (stereo partly specified)
[1]
  Activity: inactive
[2]
  Activity: 31%
[3]
  Activity: 24%
MM1.S
  IC50: 27 nM
[4]
  Activity: 362%
[5]
  Activity: Active
[6]
  Activity: 49%
[7]
  Activity: 50%
[8]
  Activity: 62%
MV4-11
  IC50: 3 nM
[9]
  Activity: 70%
[10]
  Activity: 67%
[11]
  Activity: 18%
MRC5 [12]
  inhibition: Active
[13]
  Activity: 33%
[14]
  Activity: 66%
[15]
  Activity: 80%
[16]
  Activity: 10%
[17]
  Activity: 62%
[18]
  Activity: 25%
[19]
  Activity: 62%
[20]
  Activity: 85%
[21]
  Activity: 84%
[22]
  Activity: 81%
[23]
  Activity: 100%
MRC5 [24]
  inhibition: Active
[25]
  Activity: 42%
[26]
  Activity: 26%
[27]
  Activity: 72%
[28]
  Activity: 107%
[29]
  Activity: 66%

Source: ChEMBL document CHEMBL5236646, “Design, synthesis, and biological evaluation of BRD4 degraders” (Bioorg Med Chem, 2023)
